Legend:
[1] = tested on: LPS-induced TNF-α release from human peripheral blood mononuclear cells (PBMC); assay: Inhibition of LPS-induced TNF-α release from human PBMC; type: cell-based; settings: LPS 0.4 ng/mL, 6 h, presence or absence of ICI-118551 not given
Source text: Inhibition of Lipopolysaccharide (LPS)-Induced Tumour Necrosis Factor Alpha (TNF-α) Release from Human Peripheral Blood Mononuclear Cells (PBMC)
Human whole blood was drawn from donors and cell purification initiated within two hours. Peripheral blood mononuclear cells (PBMC) were purified using a standard Ficoll gradient purification technique and aliquoted at a concentration of 100,000 cells/well in 96 well plates. Beta-2 adrenoreceptor agonists are also anti-inflammatory for some immune cells expressing the receptor and in this assay they can inhibit tumor necrosis factor-alpha (TNF-α) production. Therefore PBMC were pre-incubated for 30 min in the presence of the beta-2 adrenoreceptor antagonist ICI-118551 [3-(isopropylamino)-1-[(7-methyl-4-indanyl)oxy]butan-2-ol] (10 μM) to determine the PDE4 directed activity of test compounds, and in the absence of ICI-118551 for the combined PDE4 and beta-2 receptor directed activity. Test compounds were dissolved in DMSO and diluted in buffer (final DMSO concentration of 0.1% v/v) and were then added to the cell suspensions and pre-incubated for a further 1 h at 37° C. LPS solution was then added (0.4 ng/mL) and the cells incubated for a further 6 h. At the end of the incubation period the cell supernatants were collected and TNF-α was measured using a Procarta Cytokine Assay Kit (Affymetrix, Santa Clara, Calif.) according to the manufacturers' instructions. Data were analyzed using MiraiBio Masterplex QT v4.0 software (MasterPlex Version 1.0.1.18 Copyright 2008, Hitachi Software Engineering Co., Ltd) and used to extrapolate Mean Fluorescence Intensity (MFI) into concentrations of TNF-α and mean values from replicate wells were determined. Inhibition curves were plotted using a nonlinear curve fit employing a single-site binding model to determine the IC50 value for each test compound in the presence or absence of ICI-118551 using GraphPad Prism 5 for Windows, version 5.02 (GraphPad Software, San Diego Calif.).
EC50 determinations for the compounds presented above are seen in the fourth column of Table 1 (PBMC TNF EC50).

[2] = molecular target: T1, human recombinant beta-2 adrenoreceptors (Homo sapiens, UniProt P07550); assay: Beta-2 adrenoceptor binding assay ([3H](−)CGP-12177 displacement); settings: CHO cells expressing human beta-2 adrenoreceptors, [3H](−)CGP-12177 0.3 nM, 120 min
T1 construct: expressed in transfected cells; host or cells: CHO cells
Procedure: Beta-2 Adrenoceptor Binding Assay
Test compounds were incubated for 120 min with Chinese hamster oocyte (CHO) cells expressing the human recombinant beta-2 adrenoreceptors. Binding of test compounds to the beta-2 adrenoreceptors was determined by measuring the displacement of the radiolabeled ligand [^3H](−)CGP-12177 (0.3 nM) from the receptor measured by a scintillation counting. Concentration response curves were generated for test compounds and the IC50 (molar concentration of the compound which produced 50% inhibition for the maximal response for that compound) was determined. These assays were performed using a protocol based on the original description of the assay by Joseph et al., (2004) Naun.-Sch. Arch. Pharm.; 369:525-532.
IC50 determinations for the compounds presented above are seen in the second column of Table 1 (Beta 2 IC50).

[3] = molecular target: T1, human recombinant beta-2 adrenoreceptors; assay: Functional agonism of human recombinant beta-2 adrenoreceptors expressed in CHO cells (cAMP HTRF); type: cell-based; settings: CHO cells expressing human beta-2 adrenoreceptors, cAMP elevation, 30 min
Procedure: Functional Agonism of Human Recombinant Beta-2 Adrenoreceptors Expressed in Chinese Hamster Oocytes (CHO)
Test compounds were incubated for 30 min with CHO cells expressing the human recombinant beta-2 adrenoreceptors. Agonism of the receptor was measured by the elevation of intracellular cyclic-AMP over control levels detected using a homogeneous time resolved fluorescence (HTRF) format. Compounds were determined to be “full” or “partial” agonists based on the maximum level of cAMP accumulated compared to the control compound isoproterenol which is a full agonist in this assay system. Concentration response curves were generated for test compounds and the EC50 (molar concentration of the agonist which produced 50% of the maximal response for that compound) was determined. These assays were performed using a protocol based on the original description of the assay by Baker, J. G. (2005) Brit. J. Pharmacol.; 144:317-322.
EC50 determinations for the compounds presented above are seen in the third column of Table 1 (Beta 2 EC50).

[4] = molecular target: T2, Human recombinant PDE4B2 (Homo sapiens, UniProt Q07343); assay: Inhibition of PDE4B4 enzyme activity (PDE Glo Assay); type: biochemical; settings: human recombinant PDE4B2, 50 nM cAMP; read-out: PDE4 IC50
T2 construct: purchased BPS Bioscience
Procedure: Biological Examples Inhibition of PDE4B4 Enzyme Activity
The inhibitory activity of test compounds were determined using the PDE Glo Assay (Promega, V1361). The PDE-Glo Reaction Buffer was prepared (1 mL 5× buffer+4 mL water) and 150 nM solution of test compound dissolved in the Reaction Buffer, followed by 1:3 serial dilutions into Reaction Buffer. […] Human recombinant PDE4B2 (BPS Bioscience) was added to test compound in Reaction Buffer at a concentration of 0.12 nM per reaction. The enzyme and test compound were pre-incubated together at rt for 10 min. 50 nM of the enzyme substrate cAMP was then added to initiate the enzyme reaction, with the reaction terminated after one hour. Termination Buffer (1 mL 5× termination buffer+3.9 mL water+100 μL of 100 mM IBMX (ICN Chemicals, in DMSO)), was added to each reaction well to terminate the reaction. Detection Buffer (1 mL 5×PDE-Glo Detection buffer+3.96 mL water+40 μL PKA (supplied in kit)) was added to the cAMP-enzyme-test compound mix and this secondary reaction proceeded for 20 minutes at rt. An equal volume of Kinase Glo Reagent was then added to the reaction mixture and after 10 min luminescence was measured using a luminometer (EnVision, 0.1 sec read for luminescence). Luminescence values were […] related to levels of cAMP in the reaction mixture. Data were plotted as relative light units (RLU) versus test compound concentration and the IC50 determined using GraphPad Prism 5.0, using a nonlinear curve fit in a single-site binding model.
IC50 determinations for the compounds presented above are seen in the first column of Table 1 (PDE4IC50).

T1 sequence (P07550 whole entry): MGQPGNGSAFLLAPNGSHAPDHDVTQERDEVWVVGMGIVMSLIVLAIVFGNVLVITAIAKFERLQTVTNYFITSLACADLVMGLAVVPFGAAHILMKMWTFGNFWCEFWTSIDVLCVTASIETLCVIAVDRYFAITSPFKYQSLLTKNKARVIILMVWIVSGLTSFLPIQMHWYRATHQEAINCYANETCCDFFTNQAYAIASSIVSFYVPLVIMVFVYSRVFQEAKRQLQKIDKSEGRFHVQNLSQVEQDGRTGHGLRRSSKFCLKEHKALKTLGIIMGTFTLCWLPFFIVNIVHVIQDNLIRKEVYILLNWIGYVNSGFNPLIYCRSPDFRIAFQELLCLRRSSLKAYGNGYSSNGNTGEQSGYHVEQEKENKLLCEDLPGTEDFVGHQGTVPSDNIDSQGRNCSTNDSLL
T2 sequence (Q07343 1-564 isoform Q07343-2): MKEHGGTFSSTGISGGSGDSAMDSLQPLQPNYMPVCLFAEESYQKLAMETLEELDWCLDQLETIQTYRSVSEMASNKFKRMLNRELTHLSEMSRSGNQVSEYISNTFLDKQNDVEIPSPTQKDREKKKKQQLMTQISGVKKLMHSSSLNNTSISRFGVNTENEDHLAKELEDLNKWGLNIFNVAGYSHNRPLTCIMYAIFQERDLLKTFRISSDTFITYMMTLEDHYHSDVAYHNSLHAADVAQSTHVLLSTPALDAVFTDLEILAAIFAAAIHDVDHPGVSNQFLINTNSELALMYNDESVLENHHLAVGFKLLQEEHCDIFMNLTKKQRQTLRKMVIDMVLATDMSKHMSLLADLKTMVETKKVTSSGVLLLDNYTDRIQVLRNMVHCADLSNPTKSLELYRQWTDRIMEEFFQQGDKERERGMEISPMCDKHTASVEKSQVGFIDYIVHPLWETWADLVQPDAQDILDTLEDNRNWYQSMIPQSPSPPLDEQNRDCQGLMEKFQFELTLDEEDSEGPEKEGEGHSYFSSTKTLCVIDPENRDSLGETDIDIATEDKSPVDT

Structure (SMILES): COc1cccc(Nc2c(C(N)=O)cnc3c(C)cc(S(=O)(=O)c4cccc(C(=O)N(C)CCCCCCNC[C@H](O)c5ccc(O)c(NC=O)c5)c4)cc23)c1 [Example 28, (R)-6-((3-((6-((2-(3-formamido-4-hydroxyphenyl)-2-hydroxyethyl)amino)hexyl)(methyl)carbamoyl)phenyl)sulfonyl)-4-((3-methoxyphenyl)amino)-8-methylquinoline-3-carboxamide]
- EC50 [1]: < 0.1 µM
- IC50 [2]: > 0.3 µM
- EC50 [3]: < 0.1 µM
- IC50 [4]: < 0.1 µM

Structure (SMILES): COc1cccc(Nc2c(C(N)=O)cnc3c(C)cc(S(=O)(=O)c4cccc(C(=O)Nc5ccc(C#CCCCNC[C@H](O)c6ccc(O)c(NC=O)c6)cc5)c4)cc23)c1 [Example 31, (R)-6-[[3-[[4-[5-[[2-(3-Formamido-4-hydroxyphenyl)-2-hydroxyethyl]amino]pent-1-ynyl]phenyl]carbamoyl]phenyl]sulfonyl]-4-[(3-methoxyphenyl)amino]-8-methylquinoline-3-carboxamide]
- EC50 [1]: < 0.1 µM
- IC50 [2]: < 0.3 µM
- EC50 [3]: < 0.3 µM
- IC50 [4]: < 0.1 µM

Structure (SMILES): COc1cccc(Nc2c(C(N)=O)cnc3c(C)cc(S(=O)(=O)c4cccc(C(=O)NCCCCCCNC[C@H](O)c5ccc(O)c6c5OCC(=O)N6)c4)cc23)c1 [Example 29, (R)-6-((3-((6-((2-hydroxy-2-(5-hydroxy-3-oxo-3,4-dihydro-2H-benzo[b][1,4]oxazin-8-yl)ethyl)amino)hexyl)carbamoyl)phenyl)sulfonyl)-4-((3-methoxyphenyl)amino)-8-methylquinoline-3-carboxamide]
- EC50 [1]: < 0.1 µM
- IC50 [2]: < 0.1 µM
- EC50 [3]: < 0.1 µM
- IC50 [4]: < 0.1 µM

Structure (SMILES): COc1cccc(Nc2c(C(N)=O)cnc3c(C)cc(S(=O)(=O)c4cccc(C(=O)Nc5ccc(-c6ccc(CNC[C@H](O)c7ccc(O)c8[nH]c(=O)ccc78)cc6)cc5)c4)cc23)c1 [Example 20, (R)-6-((3-((4′-(((2-hydroxy-2-(8-hydroxy-2-oxo-1,2-dihydroquinolin-5-yl)ethyl)amino)methyl)-[1,1′-biphenyl]-4-yl)carbamoyl)phenyl)sulfonyl)-4-((3-methoxyphenyl)amino)-8-methylquinoline-3-carboxamide]
- EC50 [1]: < 0.1 µM
- IC50 [2]: < 0.1 µM
- EC50 [3]: < 0.1 µM
- IC50 [4]: < 0.1 µM

Structure (SMILES): COc1cccc(Nc2c(C(N)=O)cnc3c(C)cc(S(=O)(=O)c4cccc(C(=O)Nc5ccc(CCCCOCCCCCCNC[C@H](O)c6ccc(O)c7[nH]c(=O)ccc67)cc5)c4)cc23)c1 [Example 38, (R)-6-((3-((4-(4-((6-((2-hydroxy-2-(8-hydroxy-2-oxo-1,2-dihydroquinolin-5-yl)ethyl)amino)hexyl)oxy)butyl)phenyl)carbamoyl)phenyl)sulfonyl)-4-((3-methoxyphenyl)amino)-8-methylquinoline-3-carboxamide]
- EC50 [1]: < 0.1 µM
- IC50 [2]: < 0.1 µM
- EC50 [3]: < 0.1 µM
- IC50 [4]: < 0.1 µM

Structure (SMILES): COc1cccc(Nc2c(C(N)=O)cnc3c(C)cc(S(=O)(=O)c4cccc(C(=O)N5CCN(CCCCCCNC[C@H](O)c6ccc(O)c7[nH]c(=O)ccc67)CC5)c4)cc23)c1 [Example 16, (R)-6-((3-(4-(6-((2-hydroxy-2-(8-hydroxy-2-oxo-1,2-dihydroquinolin-5-yl)ethyl)amino)hexyl)piperazine-1-carbonyl)phenyl)sulfonyl)-4-((3-methoxyphenyl)amino)-8-methylquinoline-3-carboxamide]
- EC50 [1]: < 0.1 µM
- IC50 [2]: > 0.3 µM
- EC50 [3]: < 0.3 µM
- IC50 [4]: < 0.1 µM

Structure (SMILES): COc1cccc(Nc2c(C(N)=O)cnc3c(C)cc(S(=O)(=O)c4cccc(C(=O)N5CCC(NC[C@H](O)c6ccc(O)c7[nH]c(=O)ccc67)CC5)c4)cc23)c1 [Example 3, (R)-6-[[3-[[4-[[2-Hydroxy-2-(8-hydroxy-2-oxo-1,2-dihydroquinolin-5-yl)ethyl]amino]piperidine-1-yl]carbonyl)phenyl]sulfonyl]-4-[(3-methoxyphenyl)amino]-8-methylquinoline-3-carboxamide]
- EC50 [1]: < 0.1 µM
- IC50 [2]: > 0.3 µM
- EC50 [3]: < 0.1 µM
- IC50 [4]: < 0.1 µM

Structure (SMILES): COc1cccc(Nc2c(C(N)=O)cnc3c(C)cc(S(=O)(=O)CCCCCCCCCCCNC[C@H](O)c4ccc(O)c5[nH]c(=O)ccc45)cc23)c1 [Example 45, (R)-6-((11-((2-hydroxy-2-(8-hydroxy-2-oxo-1,2-dihydroquinolin-5-yl)ethyl)amino)undecyl)sulfonyl)-4-((3-methoxyphenyl)amino)-8-methylquinoline-3-carboxamide]
- EC50 [1]: < 0.1 µM
- IC50 [2]: < 0.1 µM
- EC50 [3]: < 0.1 µM
- IC50 [4]: < 0.1 µM

Structure (SMILES): COc1cccc(Nc2c(C(N)=O)cnc3c(C)cc(S(=O)(=O)c4cccc(C(=O)N(C)CCCCCCNC[C@H](O)c5ccc(O)c6[nH]c(=O)ccc56)c4)cc23)c1 [Example 14]
- EC50 [1]: < 0.1 µM
- IC50 [2]: > 0.3 µM
- EC50 [3]: > 0.3 µM
- IC50 [4]: < 0.1 µM

Structure (SMILES): COc1cccc(Nc2c(C(N)=O)cnc3c(C)cc(S(=O)(=O)c4cccc(C(=O)N(C)CCCCCCNC[C@H](O)c5ccc(O)c(CO)c5)c4)cc23)c1 [Example 44, (R)-6-[[3-[[6-[[2-Hydroxy-2-(4-hydroxy-3-(hydroxymethyl]phenyl]ethyl]amino)hexyl](methyl)carbamoyl]phenyl]sulfonyl]-4-[(3-methoxyphenyl)amino]-8-methylquinoline-3-carboxamide]
- EC50 [1]: < 0.1 µM
- IC50 [2]: > 0.3 µM
- EC50 [3]: > 0.3 µM
- IC50 [4]: < 0.1 µM

Structure (SMILES): COc1cccc(Nc2c(C(N)=O)cnc3c(C)cc(S(=O)(=O)c4cccc(-c5ccc(CNC[C@H](O)c6ccc(O)c7[nH]c(=O)ccc67)cc5)c4)cc23)c1 [Example 47, (R)-6-((4′-(((2-hydroxy-2-(8-hydroxy-2-oxo-1,2-dihydroquinolin-5-yl)ethyl)amino)methyl)-[1,1′-biphenyl]-3-yl)sulfonyl)-4-((3-methoxyphenyl)amino)-8-methylquinoline-3-carboxamide]
- EC50 [1]: < 0.1 µM
- IC50 [2]: > 0.3 µM
- EC50 [3]: > 0.3 µM
- IC50 [4]: < 0.1 µM
